Columns and labels:
Assay type in all cases: in vivo, BALB/c mice
[1] = tested on: anti-OVA-specific IgE antibody; assay: Allergy inducing activity test: anti-OVA-specific IgE antibody in serum of OVA-immunized mice (DS mouse IgE ELISA (OVA) kit); conditions: for anti-OVA-specific IgE antibody production: after secondary immunization, dorsal-subcutaneous; for allergy inducing activity as compared to Addavax: conclusion from IgE after secondary immunization, compound in 5% αCD-added saline
Method: 8-Week-old female BALB/c mice were divided into groups (N=6), and each group was primarily immunized by dorsal-subcutaneous administration of (1) ovalbumin (OVA) (5 μg) dissolved in saline as an antigen (OVA single administration group), (2) OVA 5 μg and Addavax™ (mixed with saline at 1:1) dissolved in saline (Addavax™ administration group) as positive control adjuvant, (3) OVA 5 μg and SZ137 0.256 μmol dissolved or dispersed in 5% α-cyclodextrin (hereinafter to be simply referred to as αCD)-added saline (SZ137 administration group), (4) OVA (5 μg) and SZ138 (0.256 μmol) dissolved or dispersed in 5% αCD-added saline (SZ138 administration group), (5) OVA (5 μg) and SZ142 (0.256 μmol) dissolved or dispersed in 5% αCD-added saline (SZ142 administration group), (6) OVA (5 μg) and SZ144 (0.256 μmol) dissolved or dispersed in 5% αCD-added saline (SZ144 administration group), (7) OVA (5 μg) and SZ145 (0.256 μmol) dissolved or dispersed in 5% αCD-added saline (SZ145 administration group), (8) OVA (5 μg) and SZ146 (0.256 μmol) dissolved or dispersed in 5% αCD-added saline (SZ146 administration group), (9) OVA (5 μg) and SZ147 (0.256 μmol) dissolved or dispersed in 5% αCD-added saline (SZ147 administration group), (10) OVA (5 μg) and SZ148 (0.256 μmol) dissolved or dispersed in 5% αCD-added saline (SZ148 administration group), each per mouse. Two week later, the secondary immunization was carried out by dorsal-subcutaneous administration of solutions or dispersions similar to those of the above-mentioned (1)-(10) again. Two weeks from the secondary immunization, the whole blood was extracted under anesthesia, and the obtained serum sample was measured for anti-OVA-specific IgG1 subclass antibody, anti-OVA-specific IgG2a subclass antibody, and anti-OVA-specific IgE antibody.
The measurement method of the anti-OVA-specific IgE antibody in Experimental Example 1 and the following Experimental Examples 2-5, 8-10 is as follows.
DS mouse IgE ELISA (OVA) kit manufactured by DS Pharma Biomedical Co., Ltd. was used. The protocol is briefly shown below.
The serum sample and a standard reagent for drawing an analytical curve are diluted with a buffer and, after stirring, left standing at room temperature for 10 min. The sample and the standard solution are added to a plate bound with an IgE capture antibody in advance and, after stirring, the mixture is left standing at room temperature for 60 min. The mixture is washed three times with wash, HRP-labeled OVA is added, and the mixture is left standing at room temperature for 30 min. The mixture is washed three times with wash, a substrate solution is added, and the mixture is left standing in dark at room temperature for 30 min. A reaction quenching liquid is added, the mixture is stirred, and the absorbance (OD Value=450 nm) is immediately measured.
The standard used is one attached to the kit, the standard curve is drawn from the measured OD Value, and the concentration is calculated. […]

[2] = tested on: anti-OVA-specific IgG1 and IgG2a subclass antibody / anti-OVA-specific IgE antibody; assay: Effective Index: index for adjuvant enhancing antibody production and not inducing allergy (IgG1 or IgG2a / IgE, relative to Addavax = 1.0)
Method: The serum samples obtained in Experimental Example 1 were evaluated for utilizability as an adjuvant to cause enhancement of antibody production by each compound and not induce allergy based on the following index (Effective Index). Whether each compound can be used as an adjuvant to cause enhancement of antibody production and not induce allergy was also evaluated in the same manner in the following Experimental Examples 2-10.
It is a problem that Addavax™ potentiates antigen-specific antibody production but induces allergy. Therefore, the index for adjuvant not inducing allergy (Effective Index) was defined as follows, and an index of each administration group in Experimental Examples 1-10 was calculated. That is, a value obtained by dividing mean of the concentrations of anti-OVA-specific IgG1 subclass antibody and anti-OVA-specific IgG2a subclass antibody of each group by mean of anti-OVA-specific IgE antibody concentration of each group was relatively compared with a value obtained by dividing mean of the concentrations of anti-OVA-specific IgG1 subclass antibody and anti-OVA-specific IgG2a subclass antibody of Addavax™ administration group by mean of anti-OVA-specific IgE antibody concentration of Addavax™ administration group as 1.0.

[3] = tested on: anti-OVA-specific IgE antibody; assay: Allergy inducing activity test: anti-OVA-specific IgE antibody in serum of OVA-immunized mice (DS mouse IgE ELISA (OVA) kit); conditions: for anti-OVA-specific IgE antibody production: Experimental Example 4: after secondary immunization, compound 0.256 μmol dissolved in saline (no αCD)
[4] = OVA 5 μg + compound 0.256 μmol in 5% αCD-added saline (Addavax mixed with saline at 1:1), compared to OVA single administration group
[5] = after secondary immunization, compound in 5% αCD-added saline, IgG1/IgE and IgG2a/IgE production amounts relative to Addavax administration group (1.0)
[6] = OVA 5 μg + compound 0.256 μmol in 5% αCD-added saline, compared to Addavax administration group

SMILES	anti-OVA-specific IgE antibody production [1, 4]	allergy inducing activity as compared to Addavax [1]	anti-OVA-specific IgE antibody production [1, 6]	further results
CCCCCCCCCCCCCCCC(=O)N[C@@H](CCCCN)C(=O)NCCCCCCCCCCCC.Cl [SZ153, N-[(1S)-5-amino-1-(dodecylcarbamoyl)pentyl]hexadecanamide hydrochloride]	an increase in the anti-OVA-specific IgE antibody production was not observed	may have a lower allergy inducing activity		Effective Index [2, 5]: > 1.0
CCCCCCCCCCCCCCCCCCCCCC(=O)N[C@@H](CCCCNC(=N)N)C(=O)NCCCCCCCCCCCC.Cl [SZ166, N-[(1S)-1-(dodecylcarbamoyl)-5-guanidino-pentyl]docosanamide hydrochloride]		allergy inducing activity equivalent to or not more than that of Addavax™	lower	
CCCCCCCCCCCCCCCCCCCCCC(=O)N[C@@H](CC(C)C)C(=O)NCCCCCCCCCCC [SZ142, N-[(1S)-3-methyl-1-(undecylcarbamoyl)butyl]docosanamide]	an increase in the anti-OVA-specific IgE antibody production was not observed	may have a lower allergy inducing activity		
CCCCCCCCCCCCCCCCCCCCCC(=O)N[C@@H](CCCNC(=N)N)C(=O)NCCCCCCCCCCCC.Cl [SZ138, N-[(1S)-1-(dodecylcarbamoyl)-4-guanidino-butyl]docosanamide hydrochloride]	an increase in the anti-OVA-specific IgE antibody production was not observed	may have a lower allergy inducing activity		
CCCCCCCCCCCCCCCCCCCCCC(=O)N[C@@H](CCCNC(=N)N)C(=O)NCCCCCCC.Cl [SZ163, N-[(1S)-4-guanidino-1-(heptylcarbamoyl)butyl]docosanamide hydrochloride]		allergy inducing activity equivalent to or not more than that of Addavax™	lower	
CCCCCCCCCCCCCCCCCCCCCC(=O)NCC(C)(C)C(=O)NCCCCCCCCCCCC [SZ148, N-[3-(dodecylamino)-2,2-dimethyl-3-oxo-propyl]docosanamide]	an increase in the anti-OVA-specific IgE antibody production was not observed	may have a lower allergy inducing activity		
CCCCCCCCCCCCCCCC(=O)N[C@@H](CCCNC(=N)N)C(=O)NCCCCCCCCCCCC.Cl [SZ111, N-[(1S)-1-(dodecylcarbamoyl)-4-guanidino-butyl]hexadecanamide hydrochloride]	did not increase significantly	may have a lower allergy inducing activity	lower	Effective Index ([2]; Experimental Example 4: after secondary immunization, compound dissolved in saline, IgG1/IgE and IgG2a/IgE relative to Addavax administration group (1.0)): > 1.0; Effective Index [2, 5]: > 1.0; anti-OVA-specific IgE antibody production ([3]; compared to Addavax administration group): lower; anti-OVA-specific IgE antibody production ([3]; compared to OVA single administration group): significantly increased; allergy inducing activity as compared to Addavax ([3]; Experimental Example 4: conclusion from IgE after secondary immunization, compound dissolved in saline): may have a lower allergy inducing activity
CCCCCCCCCCCCCCCC(=O)N[C@@H](CC(C)C)C(=O)NCCCCCCCCCCCC [SZ144, N-[(1S)-1-(dodecylcarbamoyl)-3-methyl-butyl]hexadecanamide]	an increase in the anti-OVA-specific IgE antibody production was not observed	may have a lower allergy inducing activity		
CCCCCCCCCCCCCCCCCCCCCC(=O)N[C@@H](CCCCNC(C)=O)C(=O)NCCCCCCCCCCCC [SZ167, N-[(1S)-5-acetamide-1-(dodecylcarbamoyl)pentyl]docosanamide]		allergy inducing activity equivalent to or not more than that of Addavax™	lower	
CCCCCCCC/C=C/CCCCCCCC(=O)N[C@@H](CCCNC(=N)N)C(=O)NCCCCCCCCCCCC.Cl [SZ161, (E)-N-[(1S)-1-(dodecylcarbamoyl)-4-guanidino-butyl]octadeca-9-enamide hydrochloride]		allergy inducing activity equivalent to or not more than that of Addavax™	lower	
CCCCCCCCCCCCCCCCCCCCCC(=O)N[C@@H](CCCN)C(=O)NCCCCCCCCCCCC.Cl [SZ165, N-[(1S)-4-amino-1-(dodecylcarbamoyl)butyl]docosanamide hydrochloride]		allergy inducing activity equivalent to or not more than that of Addavax™	lower	
CCCCCCCCCCCCCCCCNC(=O)N[C@@H](CCCNC(=N)N)C(=O)NCCCCCC.Cl [SZ168, (2S)-5-guanidino-2-(hexadecylcarbamoylamino)-N-hexyl-pentanamide hydrochloride]		allergy inducing activity equivalent to or not more than that of Addavax™	lower	

Source: patent publication US20180311342A1, “IMMUNOSTIMULATING AGENT” (AJINOMOTO CO., INC., priority 2017, published 2018)
